# Reference: patent publication US8986946B2, “Real-time method for the detection of viable micro-organisms” (Nederlandse Organisatie Voor …, priority 2007, dated 2015)
# Key:
# [1] = system: Staphylococcus aureus ATCC 6538; test: Real-time viability assay, uptake of the phototautomeric compound followed by fluorescence; type: cell-based; details: for uptake by bacteria: 50 μM compound in 100 mM potassium phosphate buffer pH 2 (FIG. 6); for rise in fluorescence after addition of the compound, viable vs nonviable cells: 50 μM compound, 100 mM potassium phosphate buffer pH 2, added at t=20 seconds
# Method: (§1) A solution of 100 μl containing 50 μM compound in 100 mM potassium phosphate buffer pH 7 is used for recording the excitation and emission wavelengths in a Tecan microplate fluorometer. The ratio of emission intensity at pH 7.5 and 1 as well as the ratio of emission intensity at pH 7 and 2 (indicated by the asterisk) was recorded with 100 μl solution containing 50 μM compound in 100 mM potassium phosphate buffer pH 2 or 7 in a Tecan microplate fluorometer at optimal excitation wavelength. Uptake of compounds by viable and nonviable (heat-inactivated for 5 minutes at 95° C.) Staphylococcus aureus ATCC 6538 and Sachromyces serervisiae ATCC 9763 cells is real-time monitored in a Tecan microplate fluorometer at optimal excitation and emission wavelengths. A solution of 50 μM compound in 100 mM potassium phosphate buffer pH2 was added to 100 μl cell suspensions at t=20 seconds, uptake of compound was monitored for 180 seconds.
# (§2) A solution of 100 μl containing 50 μM o-hydroxycinnamic acid, 100 mM potassium phosphate buffer pH 2, was added at t=20 seconds, as indicated by the arrow.
# (§3) Typical real-time viability assay. Staphylococcus aureus strain ATCC 6538 is cultured overnight at 100 RPM at 37° C. in 10-ml of a rich trypticase soy broth (TSB) medium. A culture volume of 5 ml is centrifuged at 2000 RPM for 10 min and resuspended in 2 ml of physiological salt solution (peptone, 0.9% NaCl) followed by an OD600 measurement. A culture suspension of 1 ml is heat-inactivated by incubation at 95° C. for 5 min. (nonviable control cell suspension). A volume of 100 μl of a viable and a nonviable cell suspension is pipetted in separate wells of a polystyrene 96-well, flat-bottom microtiter plate. Subsequently, fluorescence emission kinetics (excitation wavelength 290 nm; emission wavelength 402 nm) are monitored for 500 seconds with a time interval of 200 ms, number of reads 5. […] Hereafter, the fluorescence signal decays on a minute time-scale as a result of the loss of membrane integrity or cell viability. […] From 60.2 seconds the signal will remain constant as the membrane is permeable in nonviable cells allowing quenching of fluorescence by acidification of the intracellular environment.
# [2] = system: Saccharomyces cerevisiae ATCC 9763; test: as above; type: cell-based; details: for uptake by yeast: 50 μM compound in 100 mM potassium phosphate buffer pH 2 (FIG. 6)
# Method: as §1, §2
# Real-time viability assay for various micro-organisms. Bacterial and yeast strains were cultured overnight at 37° C. at 100 RPM in 10-ml of a rich trypticase soy broth (TSB) medium. A culture volume of 5 ml is centrifuged at 2000 RPM for 10 min and resuspended in 2 ml of physiological salt solution (peptone, 0.9% NaCl) followed by an OD600 measurement. The yeast strains include Candida albicans ATCC 10231, Saccharomyces cereuisiae ATCC9763 and the bacterial strains include A Staphylococcus aureus strain ATCC 6538, Enterobacter cloacae LMG 2783, Escherichia coli ATCC 10536, Bacillus subtilis DSM618 and Pseudomonas aeruginosa ATCC27853. The assay is carried out as specified above for Staphylococcus aureus. […] Accordingly, quantification of the number of viable cells of the yeast and other fungal strains should occur on the basis of increase of fluorescence over the measured period of time.
# [3] = system: yeast (and other fungal) strains: Candida albicans ATCC 10231, Saccharomyces cereuisiae ATCC9763; test: Real-time viability assay for various micro-organisms (yeast strains); type: cell-based, Saccharomyces cerevisiae; details: 100 mM potassium phosphate buffer pH 2
# Method: as §3, with “environment. Real-time viability assay for various micro-organisms. Bacterial and yeast strains were cultured overnight at 37° C. at 100 RPM in 10-ml of a rich trypticase soy broth (TSB) medium. A culture volume of 5 ml is centrifuged at 2000 RPM for 10 min and resuspended in 2 ml of physiological salt solution (peptone, 0.9% NaCl) followed by an OD600 measurement. The yeast strains include Candida albicans ATCC 10231, Saccharomyces cereuisiae ATCC9763 and the bacterial strains include A Staphylococcus aureus strain ATCC 6538, Enterobacter cloacae LMG 2783, Escherichia coli ATCC 10536, Bacillus subtilis DSM618 and Pseudomonas aeruginosa ATCC27853. The assay is carried out as specified above for Staphylococcus aureus. […] Accordingly, quantification of the number of viable cells of the yeast and other fungal strains should occur on the basis of increase of fluorescence over the measured period of time.” for “environment.”
# [4] = system: Saccharomyces cerevisiae ATCC 9763; test: Real-time viability assay, uptake of the phototautomeric compound followed by fluorescence; type: cell-based; details: 2 mM salicylic acid, pH 2
structure (smiles),measurement,setting,value
O=C(O)c1cc2oc3ccccc3c2cc1O [S350729],uptake by bacteria,[1],taken up by both bacteria and yeast
same,uptake by yeast,[2],taken up by both bacteria and yeast
Nc1cc2ccccc2cc1C(=O)O [3-amino-2-napthoic acid],uptake by bacteria,[1],taken up by both bacteria and yeast
same,uptake by yeast,[2],taken up by both bacteria and yeast
"Cn1c(=O)n(C)c2cc(C(=O)O)c(N)cc21 [6-amino-1,3-dimethyl-2-oxo-2,3-dihydro-1H-benzoimidazole-5-carboxylic acid]","rise in fluorescence after addition of the compound, viable vs nonviable cells","[2]; 50 μM compound, 100 mM potassium phosphate buffer pH 2, added at t=20 seconds",only observed for viable Saccharomyces cereuisiae cells
O=C(O)C=Cc1ccccc1O [o-hydroxycinnamic acid],"rise in fluorescence after addition of the compound, viable vs nonviable cells",[1],only observed for viable Staphylococcus aureus cells
same,uptake by yeast,[2],hardly taken up by yeast
Nc1ccc(O)c(C(=O)O)c1 [5-amino salicylic acid],uptake by yeast,[2],hardly taken up by yeast
O=C(O)c1ccccc1O [salicylic acid],uptake by bacteria,[1],taken up by both bacteria and yeast
same,time constant of the acidification process,"[1]; 2 mM salicylic acid, 100 mM potassium phosphate buffer pH 2",0.005 s⁻¹
same,time scale of the rapid rise in fluorescence (transfer from the extracellular to the intracellular medium),"[1]; 100 μl of 2 mM salicylic acid, 100 mM potassium phosphate buffer pH 2, injected at 60 seconds",< 200 ms
same,uptake of salicylic acid by the bacteria (time),"[1]; stationary culture, 2 mM salicylic acid, 100 mM potassium phosphate buffer pH 2",within seconds
same,accumulation of the compound by yeast (and other fungal) strains,[3],relatively slowly
same,decay of fluorescent signal in yeast (and other fungal) strains,[3],no decay of fluorescent signal
same,"permeability of the cell membrane to the compound, compared with bacteria",[4],less-permeable
same,uptake by yeast,[2],taken up by both bacteria and yeast
Nc1ccc(C(=O)O)c(O)c1 [4-amino salicylic acid],uptake by yeast,[2],hardly taken up by yeast
O=C(O)c1ccc(O)cc1O [4-hydroxy salicylic acid],uptake by yeast,[2],hardly taken up by yeast
"O=C(O)c1c(O)ccc2ccccc12 [2H-1NA, 2-hydroxy-1-naphtoic acid]",accumulation of the compound by yeast (and other fungal) strains,[3],relatively slowly
same,decay of fluorescent signal in yeast (and other fungal) strains,[3],no decay of fluorescent signal
"O=C(O)c1cc(O)ccc1O [gentisic acid, 2,5-dihydroxybenzoic acid]","rise in fluorescence after addition of the compound, viable vs nonviable cells",[1],only observed for viable Staphylococcus aureus cells
"O=C(O)c1ccc2ccccc2c1O [1H-2NA, 1-hydroxy-2-naphtoic acid]",uptake by bacteria,[1],taken up by both bacteria and yeast
same,accumulation of the compound by yeast (and other fungal) strains,[3],relatively slowly
same,decay of fluorescent signal in yeast (and other fungal) strains,[3],no decay of fluorescent signal
same,uptake by yeast,[2],taken up by both bacteria and yeast
